Source: paper PMC6968633, “Synthesis, antibacterial and anticancer activity, and docking study of aminoguanidines containing an alkynyl moiety” (Journal of Enzyme Inhibition and Medicinal Chemistry, 2019)
In brackets after ≈: the same amount, converted by molar mass.

Experiments:
tested bacterial strains = assay: Antibacterial MIC, panel of tested bacterial strains; assay type: cell-based; conditions: against almost all of the tested strains
Description: (§1) Test bacteria were grown to mid-log phase in Mueller–Hinton broth (MHB) or Tryptone Soya Broth (TSB) and diluted 1000-fold in the same medium. Bacteria (10^5 CFU/mL) were inoculated into MHB or TSB and dispensed at 0.2 ml/well into a 96-well microtiter plate. As positive controls, gatifloxacin, moxifloxacin, norfloxacin, oxacillin, and penicillin were used. […] Bacterial growth was determined by measuring the absorption at 630 nm using a microplate reader. All experiments were carried out three times.
(§2) The evaluation of antibacterial activity of all compounds (3a–3j and 6a–6k) was performed by a serial dilution method to determine the MIC against a panel of pathogens comprising five Gram-positive strains (S. aureus (CMCC(B) 26003 and CMCC 25923), Streptococcus mutans BNCC 336931, Enterococcus faecalis CMCC 29212, and Bacillus subtilis CMCC 63501), four Gram-negative strains (E. coli (CMCC 25922 and CMCC 44568) and P. aeruginosa (CMCC 27853 and CMCC 10104)), as well as three methicillin-resistant clinical isolates (S. aureus ATCC 43300 and ATCC 33591, P. aeruginosa ATCC BAA-2111). The results are described in Tables 1 and 2. Gatifloxacin, moxifloxacin, norfloxacin, oxacillin, and penicillin were used as positive controls.

[1] = tested on: Streptococcus mutans BNCC 336931; assay: Antibacterial MIC, serial dilution; assay type: cell-based; conditions: Streptococcus mutans, BNCC336931; S. mutans BNCC 336931, 24 h, 37 °C; read-out: MIC
Description: as §1, §2

[2] = tested on: Enterococcus faecalis CMCC 29212; assay: Antibacterial MIC, serial dilution; assay type: cell-based; conditions: Enterococcus faecalis, CMCC29212; E. faecalis CMCC 29212, 24 h, 37 °C; read-out: MIC
Description: as §1, §2

[3] = tested on: Bacillus subtilis CMCC 63501; assay: Antibacterial MIC, serial dilution; assay type: cell-based; conditions: Bacillus subtilis, CMCC63501; B. subtilis CMCC 63501, 24 h, 37 °C; read-out: MIC
Description: as §1, §2

[4] = tested on: Staphylococcus aureus CMCC(B)26003; assay: Antibacterial MIC, serial dilution; assay type: cell-based; conditions: Staphylococcus aureus; S. aureus CMCC(B)26003, 24 h, 37 °C; read-out: MIC
Description: as §1, §2

[5] = tested on: Pseudomonas aeruginosa CMCC 10104; assay: Antibacterial MIC, serial dilution; assay type: cell-based; conditions: Pseudomonas aeruginosa, CMCC10104; P. aeruginosa CMCC 10104, 24 h, 37 °C; read-out: MIC
Description: as §1, §2

[6] = tested on: Pseudomonas aeruginosa CMCC 27853; assay: Antibacterial MIC, serial dilution; assay type: cell-based; conditions: Pseudomonas aeruginosa, CMCC27853; P. aeruginosa CMCC 27853, 24 h, 37 °C; read-out: MIC
Description: as §1, §2

[7] = tested on: Escherichia coli CMCC 44568; assay: Antibacterial MIC, serial dilution; assay type: cell-based; conditions: Escherichia coli, CMCC44568; E. coli CMCC 44568, 24 h, 37 °C; read-out: MIC
Description: as §1, §2

[8] = tested on: Escherichia coli CMCC 25922; assay: Antibacterial MIC, serial dilution; assay type: cell-based; conditions: Escherichia coli, CMCC25922; E. coli CMCC 25922, 24 h, 37 °C; read-out: MIC
Description: as §1, §2

[9] = tested on: Staphyiococcus aureus CMCC 25923; assay: Antibacterial MIC, serial dilution; assay type: cell-based, Staphylococcus aureus; conditions: Staphylococcus aureus, CMCC25923; S. aureus CMCC 25923, 24 h, 37 °C; read-out: MIC
Description: as §1, §2

L02 = assay: Cytotoxicity, CCK-8 assay, normal cell line; assay type: cell-based; conditions: L02 normal human hepatocytes, 48 h
Description: (§3) A lung cancer cell line (A549), gastric cancer cell line (SGC7901) and human hepatocytes (L02) were used to test the anticancer activity and cytotoxicity of the new compounds. 5-Fluorouracil (5-FU) was used as the positive control against cancer cell lines. The A549, SGC7901 and L02 cells were grown in Dulbecco’s modified Eagle’s medium (DMEM) supplemented with 10% foetal bovine serum (FBS) and antibiotics (100 U/mL penicillin-streptomycin). Cells at 80–90% confluence were split by trypsin (0.25% in PBS; pH 7.4), and the medium was changed at 24 h intervals. The cells were cultured at 37 °C in a 5% CO2 incubator. The cells were passaged three times, then approximately 1 × 10^4 cells were seeded into each well of a 96-well plate and allowed to incubate to allow attachment of the cells to the surface. After 24 h, the medium was replaced with DMEM supplemented with 10% FBS containing various concentrations (0.1, 0.3, 1, 3, 10, and 30 μg/mL) of test compounds. Each concentration was tested in triplicate. After 48 h treatment, 20 µL of CCK-8 solution was added to each well and the optical density measured at 450 nm after 3 h using a microplate reader. The IC50 values were defined as the concentrations inhibiting 50% of cell growth.

SGC7901 = assay: Cytotoxicity, CCK-8 assay; assay type: cell-based; conditions: Homo sapiens, SGC-7901, SGC7901 gastric cancer cells, 48 h
Description: as §3

A549 = assay: Cytotoxicity, CCK-8 assay; assay type: cell-based; conditions: Homo sapiens, A549 lung cancer cells, 48 h
Description: as §3

[10] = tested on: Staphylococcus aureus ATCC 43300; assay: Antibacterial MIC, multidrug-resistant clinical isolate; assay type: cell-based; conditions: Staphylococcus aureus, ATCC43300; multidrug-resistant S. aureus ATCC 43300; read-out: MIC
Description: as §1, §2

[11] = tested on: Staphylococcus aureus ATCC 33591; assay: as above; assay type: cell-based; conditions: Staphylococcus aureus, ATCC33591; multidrug-resistant S. aureus ATCC 33591; read-out: MIC
Description: as §1, §2

[12] = tested on: Pseudomonas aeruginosa ATCC BAA-2111; assay: as above; assay type: cell-based; conditions: ATCCBAA2111, multidrug-resistant P. aeruginosa ATCC BAA-2111
Description: as §1, §2

[13] = tested on: Staphylococcus aureus CMCC 25923; assay: Bacterial resistance development, serial passaging at sub-MIC; assay type: cell-based; conditions: S. aureus, passaging at MIC/2, 20 passages
Description: (§4) To evaluate the propensity for developing bacterial resistance, one of the compounds with high antibacterial activity (3g) was used. The initial MIC values of 3g were determined against bacteria Staphylococcus aureus CMCC 25923 and Escherichia coli CMCC 44568, using norfloxacin and colistin, respectively, as antibiotic controls. Subsequently, serial passaging was initiated by transferring bacterial suspension grown at the sub-MIC of the compound/antibiotics (MIC/2) to a new plate and subjecting it to another assay to determine the (new) MIC. After 22 h incubation, cells grown at the sub-MIC of the test compound/antibiotics were once again transferred and the MIC determined. The process was repeated for 20 or 30 passages for S. aureus and E. coli, respectively. The MIC for 3g, norfloxacin and colistin was plotted as a function of time in days (number of passages) to determine the propensity of bacterial resistance development.
(§5) Bacterial resistance against most antibiotics presents a major problem of current times. Therefore, it is crucial to evaluate the potential emergence of bacterial resistance against these biocides. […] Norfloxacin, an antibiotic generally used to treat the Gram-positive infections, was used as a positive control for S. aureus, whereas colistin, a lipopeptide antibiotic active against Gram-negative bacteria, was used as a positive control for E. coli. These antibacterial agents were repeatedly challenged against bacteria at their sub-MIC values to allow bacteria to develop resistance. Resistance is usually defined as a > 4-fold increase in the original MIC[32].

[14] = tested on: Escherichia coli CMCC 44568; assay: as above; assay type: cell-based; conditions: E. coli, passaging at MIC/2
Description: as §4, §5

[15] = tested on: Methicillin-resistant S. aureus ATCC 33591; assay: Bactericidal time-kill assay; assay type: cell-based, Staphylococcus aureus; conditions: MRSA; for nature of antibacterial effect in time-kill assay: 1 × MIC and 2 × MIC
Description: Methicillin-resistant S. aureus ATCC 33591 grown in MHB was used to determine time-kill kinetics. Bacterial suspensions (10^5 CFU/mL) containing test compounds (norflocaxin, compound 3g) at final concentrations of 1 × MIC and 2 × MIC were incubated at 37 °C with shaking. Aliquots (10 μL) were removed from the cultures after 0, 0.5, 1, 2, 3, 4, 6, 8 and 12 h, serially diluted 1000-fold in nutrient solution, and plated onto sterile Mueller-Hinton agar medium. Plates were then incubated for 24 h at 37 °C, the number of CFU was counted, and the total bacterial log10 CFU/mL was determined.

N=C(N)NN=Cc1ccc(C#CC#Cc2ccc(F)cc2)cc1 [Compound 6d, 2-(4-((4-Fluorophenyl)buta-1,3-diyn-1-yl)benzylidene)hydrazine-1-carboximidamide]
MIC (tested bacterial strains): ≥ 128 µg/mL
MIC [1]: > 128 µg/mL
MIC [2]: 128 µg/mL (≈ 421 µM)
MIC [3]: > 128 µg/mL
MIC [4]: 64 µg/mL (≈ 210 µM)
MIC [5]: > 128 µg/mL
MIC [6]: > 128 µg/mL
MIC [7]: > 128 µg/mL
MIC [8]: > 128 µg/mL
melting point: 206 to 210 °C
MIC [9]: 4 µg/mL (≈ 13.1 µM)

N=C(N)NN=Cc1ccc(C#CC#Cc2cccc(Br)c2)cc1 [Compound 6i, 2-(4-((3-Bromophenyl)buta-1,3-diyn-1-yl)benzylidene)hydrazine-1-carboximidamide]
MIC (tested bacterial strains): ≥ 128 µg/mL
MIC [1]: 0.5 µg/mL (≈ 1.37 µM)
MIC [2]: 0.5 µg/mL (≈ 1.37 µM)
MIC [3]: 2 µg/mL (≈ 5.48 µM)
MIC [4]: 2 µg/mL (≈ 5.48 µM)
MIC [5]: 128 µg/mL (≈ 350 µM)
MIC [6]: > 128 µg/mL
MIC [7]: 128 µg/mL (≈ 350 µM)
MIC [8]: 64 µg/mL (≈ 175 µM)
melting point: 196 to 198 °C
MIC [9]: 128 µg/mL (≈ 350 µM)

N=C(N)NN=Cc1ccc(C#CC#Cc2ccccc2)cc1 [Compound 6a, 2-(4-(Phenylbuta-1,3-diyn-1-yl)benzylidene)hydrazine-1-carboximidamide]
IC50 (L02): 13.4 µg/mL (≈ 46.7 µM)
MIC [1]: 0.5 µg/mL (≈ 1.75 µM)
MIC [2]: 0.5 µg/mL (≈ 1.75 µM)
MIC [3]: 0.5 µg/mL (≈ 1.75 µM)
MIC [4]: 0.5 µg/mL (≈ 1.75 µM)
MIC [5]: 1 µg/mL (≈ 3.49 µM)
MIC [6]: > 128 µg/mL
MIC [7]: 128 µg/mL (≈ 447 µM)
MIC [8]: 128 µg/mL (≈ 447 µM)
IC50 (SGC7901): 1.63 µg/mL (≈ 5.69 µM)
IC50 (A549): 2.49 µg/mL (≈ 8.7 µM)
MIC [10]: 4 µg/mL (≈ 14 µM)
MIC [11]: 0.5 µg/mL (≈ 1.75 µM)
MIC [12]: > 64 µg/mL
melting point: 209 to 212 °C
MIC [9]: > 128 µg/mL

N=C(N)NN=Cc1ccc(C#CC#Cc2ccc(Cl)cc2)cc1 [Compound 6g, 2-(4-((4-Chlorophenyl)buta-1,3-diyn-1-yl)benzylidene)hydrazine-1-carboximidamide]
MIC (tested bacterial strains): ≥ 128 µg/mL
MIC [1]: > 128 µg/mL
MIC [2]: 128 µg/mL (≈ 399 µM)
MIC [3]: > 128 µg/mL
MIC [4]: > 128 µg/mL
MIC [5]: > 128 µg/mL
MIC [6]: > 128 µg/mL
MIC [7]: 128 µg/mL (≈ 399 µM)
MIC [8]: 128 µg/mL (≈ 399 µM)
melting point: 202 to 205 °C
MIC [9]: > 128 µg/mL

N=C(N)NN=Cc1ccc(C#Cc2ccc(Cl)cc2)cc1 [Compound 3g, 2-(4-((4-Chlorophenyl)ethynyl)benzylidene)hydrazine-1-carboximidamide]
IC50 (L02): 20.9 µg/mL (≈ 70.3 µM)
increase in MIC on serial passaging [13]: little change
increase in MIC on serial passaging [14]: little change
MIC [1]: 0.5 µg/mL (≈ 1.68 µM)
MIC [2]: 0.5 µg/mL (≈ 1.68 µM)
MIC [3]: 0.25 µg/mL (≈ 0.842 µM)
MIC [4]: 0.5 µg/mL (≈ 1.68 µM)
MIC [5]: 1 µg/mL (≈ 3.37 µM)
MIC [6]: > 128 µg/mL
MIC [7]: 2 µg/mL (≈ 6.74 µM)
MIC [8]: 2 µg/mL (≈ 6.74 µM)
IC50 (SGC7901): 1.01 µg/mL (≈ 3.4 µM)
IC50 (A549): 4.42 µg/mL (≈ 14.9 µM)
nature of antibacterial effect in time-kill assay [15]: rapidly bactericidal
persistence of bactericidal activity ([15]; 2 × MIC): 12 h
reduction of bacterial count ([15]; 2 × MIC, after 2 h, start 5.5 log10 CFU/mL): > 5 log10 CFU/mL
MIC [10]: 1 µg/mL (≈ 3.37 µM)
MIC [11]: 0.5 µg/mL (≈ 1.68 µM)
MIC [12]: 4 µg/mL (≈ 13.5 µM)
melting point: 232 to 234 °C
MIC [9]: 0.5 µg/mL (≈ 1.68 µM)

CCn1cc(C(=O)O)c(=O)c2cc(F)c(N3CCNCC3)cc21 [Norfloxacin, reference compound]
increase in MIC on serial passaging [13]: approximately 32 fold
MIC [1]: 16 µg/mL (≈ 50.1 µM)
MIC [2]: 1 µg/mL (≈ 3.13 µM)
MIC [3]: 2 µg/mL (≈ 6.26 µM)
MIC [4]: 0.125 µg/mL (≈ 0.391 µM)
MIC [5]: 4 µg/mL (≈ 12.5 µM)
MIC [6]: 2 µg/mL (≈ 6.26 µM)
MIC [7]: 0.125 µg/mL (≈ 0.391 µM)
MIC [8]: 0.125 µg/mL (≈ 0.391 µM)
nature of antibacterial effect in time-kill assay [15]: bacteriostatic, not bactericidal
MIC [10]: 0.5 µg/mL (≈ 1.57 µM)
MIC [11]: 0.25 µg/mL (≈ 0.783 µM)
MIC [12]: 1 µg/mL (≈ 3.13 µM)
MIC [9]: 0.125 µg/mL (≈ 0.391 µM)
